From ChEMBL document CHEMBL1154520, “Synthesis and antitumor activity of novel 20s-camptothecin analogues” (Bioorg Med Chem Lett, 2009)
pIC50: −log10 of the molar value.

How the values were obtained:
PC-3 = assay: Cytotoxicity against human PC3 cells by MTT assay; type: functional, cell-based
HCT-8 [1] = assay: Cytotoxicity against human HCT8 cells by MTT assay; type: functional, cell-based
MCF7 = assay: Cytotoxicity against human MCF7 cells by MTT assay; type: functional, cell-based
[2] = Chemical stability assessed as half life in PBS at pH 7.4 by HPLC; type: physicochemical
HCT-8 [3] = assay: Antitumor activity against human HCT8 xenografted in BALB/c nu/nu mouse assessed as change in body weight at 20 mg/kg, ip q3d for 3 days; type: functional; conditions: route intraperitoneal
HCT-8 [4] = assay: Antitumor activity against human HCT8 xenografted in BALB/c nu/nu mouse assessed as tumor inhibition rate at 20 mg/kg, ip q3d for 3 days; type: functional; conditions: HCT-8, ip, 72 h, route intraperitoneal
HCT-8 [5] = assay: Antitumor activity against human HCT8 xenografted in BALB/c nu/nu mouse assessed as tumor inhibition rate at 10 mg/kg, ip q3d for 3 days; type: functional; conditions: HCT-8, ip, 72 h, route intraperitoneal
Mus musculus [6] = assay: Toxicity to BALB/c nu/nu mouse assessed as mortality at 10 mg/kg, ip q3d for 3 days; type: organism-based; parameters: dose 10 mg/kg, route intraperitoneal; conditions: in vivo, 72 h
HCT-8 [7] = assay: Antitumor activity against human HCT8 xenografted in BALB/c nu/nu mouse assessed as change in body weight at 10 mg/kg, ip q3d for 3 days; type: functional; conditions: route intraperitoneal
Mus musculus [8] = assay: Toxicity to BALB/c nu/nu mouse assessed as mortality at 20 mg/kg, ip q3d for 3 days; type: organism-based; parameters: dose 20 mg/kg, route intraperitoneal; conditions: in vivo, 72 h
HCT-8 [9] = assay: Antitumor activity against human HCT8 xenografted in BALB/c nu/nu mouse assessed as tumor inhibition rate at 5 mg/kg, ip q3d for 3 days; type: functional; conditions: HCT-8, ip, 72 h, route intraperitoneal
Mus musculus [10] = assay: Toxicity to BALB/c nu/nu mouse assessed as mortality at 5 mg/kg, ip q3d for 3 days; type: organism-based; parameters: dose 5 mg/kg, route intraperitoneal; conditions: in vivo, 72 h
HCT-8 [11] = assay: Antitumor activity against human HCT8 xenografted in BALB/c nu/nu mouse assessed as change in body weight at 5 mg/kg, ip q3d for 3 days; type: functional; conditions: route intraperitoneal

SMILES: CC[C@@]1(OC(=O)C[n+]2cccc(C(C)=O)c2)C(=O)OCc2c1cc1n(c2=O)Cc2cc3ccccc3nc2-1
- pIC50 (PC-3): 6.27
- pIC50 (HCT-8 [1]): 5.59
- pIC50 (MCF7): 5.46

SMILES: CC[C@@]1(OC(=O)Cn2ccnn2)C(=O)OCc2c1cc1n(c2=O)Cc2cc3ccccc3nc2-1
- pIC50 (PC-3): 6.80
- pIC50 (HCT-8 [1]): 6.42
- pIC50 (MCF7): 5.92
- half-life [2]: 24 h

SMILES: CC[C@@]1(OC(=O)C(C)n2ccnn2)C(=O)OCc2c1cc1n(c2=O)Cc2cc3ccccc3nc2-1 (stereo partly drawn)
- pIC50 (PC-3): 6.23
- pIC50 (HCT-8 [1]): 6.32
- pIC50 (MCF7): 6.80
- half-life [2]: 13 h

SMILES: CC[C@@]1(OC(=O)Cn2cncn2)C(=O)OCc2c1cc1n(c2=O)Cc2cc3ccccc3nc2-1
- pIC50 (PC-3): 6.82
- pIC50 (HCT-8 [1]): 6.13
- pIC50 (MCF7): 6.16
- half-life [2]: 45 h

SMILES: CC[C@@]1(OC(=O)C(C)n2cccn2)C(=O)OCc2c1cc1n(c2=O)Cc2cc3ccccc3nc2-1 (stereo partly drawn)
- pIC50 (PC-3): 6.89
- Activity (HCT-8 [3]): -5%
- inhibition in vivo at 20 mg/kg (HCT-8 [4]): 92.9%
- pIC50 (HCT-8 [1]): 6.64
- inhibition in vivo at 10 mg/kg (HCT-8 [5]): 77.1%
- Activity (Mus musculus [6]): Non-toxic
- Activity (HCT-8 [7]): -2%
- pIC50 (MCF7): 6.09
- half-life [2]: > 48 h

SMILES: CC[C@@]1(OC(=O)COc2cc(C(F)(F)F)ncn2)C(=O)OCc2c1cc1n(c2=O)Cc2cc3ccccc3nc2-1
- pIC50 (PC-3): 5.87
- Activity (Mus musculus [8]): Non-toxic
- Activity (HCT-8 [3]): 12%
- inhibition in vivo at 20 mg/kg (HCT-8 [4]): 49.3%
- pIC50 (HCT-8 [1]): 5.82
- inhibition in vivo at 10 mg/kg (HCT-8 [5]): 25.4%
- Activity (Mus musculus [6]): Non-toxic
- Activity (HCT-8 [7]): 36%
- pIC50 (MCF7): 5.75
- half-life [2]: 14 h

SMILES: CC[C@@]1(OC(=O)C[n+]2cccc(C(=O)O)c2)C(=O)OCc2c1cc1n(c2=O)Cc2cc3ccccc3nc2-1
- pIC50 (PC-3): 6.26
- pIC50 (HCT-8 [1]): 6.12
- pIC50 (MCF7): 5.67

SMILES: CC[C@@]1(O)C(=O)OCc2c1cc1n(c2=O)Cc2cc3c(CN(C)C)c(O)ccc3nc2-1 [TOPOTECAN]
- inhibition in vivo at 5 mg/kg (HCT-8 [9]): 62%
- pIC50 (PC-3): 5.40
- Activity (Mus musculus [10]): Non-toxic
- pIC50 (HCT-8 [1]): 5.44
- Activity (HCT-8 [11]): -3%
- inhibition in vivo at 10 mg/kg (HCT-8 [5]): 92.5%
- Activity (HCT-8 [7]): -29%
- pIC50 (MCF7): 5.26

SMILES: CC[C@@]1(OC(=O)C(C)O)C(=O)OCc2c1cc1n(c2=O)Cc2cc3ccccc3nc2-1 (stereo partly drawn)
- pIC50 (PC-3): 6.30
- pIC50 (HCT-8 [1]): 6.09
- pIC50 (MCF7): 6.25

SMILES: CC[C@@]1(OC(=O)C(C)n2ccnc2)C(=O)OCc2c1cc1n(c2=O)Cc2cc3ccccc3nc2-1 (stereo partly drawn)
- pIC50 (PC-3): 6.42
- pIC50 (HCT-8 [1]): 6.23
- pIC50 (MCF7): 6.96
- half-life [2]: 18 h

SMILES: CC[C@@]1(OC(=O)Cn2ccnc2)C(=O)OCc2c1cc1n(c2=O)Cc2cc3ccccc3nc2-1
- pIC50 (PC-3): 6.68
- Activity (Mus musculus [8]): Non-toxic
- Activity (HCT-8 [3]): 1%
- inhibition in vivo at 20 mg/kg (HCT-8 [4]): 46.2%
- pIC50 (HCT-8 [1]): 6.22
- inhibition in vivo at 10 mg/kg (HCT-8 [5]): 27.8%
- Activity (Mus musculus [6]): Non-toxic
- Activity (HCT-8 [7]): 6%
- pIC50 (MCF7): 6.05
- half-life [2]: 24 h

SMILES: CC[C@@]1(OC(=O)C[n+]2cccc(CO)c2)C(=O)OCc2c1cc1n(c2=O)Cc2cc3ccccc3nc2-1
- pIC50 (PC-3): 6.10
- pIC50 (HCT-8 [1]): 5.68
- pIC50 (MCF7): 5.59

SMILES: CC[C@@]1(OC(=O)C[n+]2cccc(C)c2)C(=O)OCc2c1cc1n(c2=O)Cc2cc3ccccc3nc2-1
- pIC50 (PC-3): 6.22
- pIC50 (HCT-8 [1]): 5.42
- pIC50 (MCF7): 5.42

SMILES: CC[C@@]1(OC(=O)C(C)n2cncn2)C(=O)OCc2c1cc1n(c2=O)Cc2cc3ccccc3nc2-1 (stereo partly drawn)
- pIC50 (PC-3): 6.36
- pIC50 (HCT-8 [1]): 6.29
- pIC50 (MCF7): 6.19
- half-life [2]: 14 h

SMILES: CC[C@@]1(OC(=O)Cn2cccn2)C(=O)OCc2c1cc1n(c2=O)Cc2cc3ccccc3nc2-1
- pIC50 (PC-3): 6.80
- Activity (Mus musculus [8]): Non-toxic
- Activity (HCT-8 [3]): 8%
- inhibition in vivo at 20 mg/kg (HCT-8 [4]): 75.6%
- pIC50 (HCT-8 [1]): 6.21
- inhibition in vivo at 10 mg/kg (HCT-8 [5]): 35.3%
- Activity (Mus musculus [6]): Non-toxic
- Activity (HCT-8 [7]): 7%
- pIC50 (MCF7): 6.92
- half-life [2]: > 48 h

SMILES: CC[C@@]1(OC(=O)CO)C(=O)OCc2c1cc1n(c2=O)Cc2cc3ccccc3nc2-1
- pIC50 (PC-3): 7.52
- pIC50 (HCT-8 [1]): 5.52
- pIC50 (MCF7): 4.98
- half-life [2]: > 48 h

SMILES: CC[C@@]1(OC(=O)C(C)Oc2cc(C(F)(F)F)ncn2)C(=O)OCc2c1cc1n(c2=O)Cc2cc3ccccc3nc2-1 (stereo partly drawn)
- pIC50 (PC-3): 6.49
- pIC50 (HCT-8 [1]): 5.95
- pIC50 (MCF7): 6.57
- half-life [2]: 9 h

SMILES: CC[C@@]1(OC(=O)C[n+]2cccc(O)c2)C(=O)OCc2c1cc1n(c2=O)Cc2cc3ccccc3nc2-1
- pIC50 (PC-3): 6.96
- pIC50 (HCT-8 [1]): 5.61
- pIC50 (MCF7): 5.42
